Source: patent EP0698347B1, “Food composition containing reuterin” (BIOGAIA BIOLOGICS AB, priority 1987, dated 1988)

Assays:
Format in all cases: cell-based
E. coli [1] = assay: Inhibition of E. coli by supernatant fractions of L. reuteri grown on various substrates (Table 2); details: for % Inhibition: percent inhibition in viable count of 6.7 x 10^7 CFU per ml E. coli inoculum by supernatant fraction, substrate 40 mM; for Growth of E. coli presence of centrifuged culture medium CFU/ml after 6 hours: supernatant fraction of L. reuteri grown on the substrate at 40 mM, inoculum 6.7 x 10^7 CFU per ml E. coli
Description: (§1) Conditions under which reuterin is produced have been determined. Reuterin is not produced under aerobic conditions (atmospheric oxygen concentration) but under reduced oxygen tension. It is produced when L. reuteri is cultured anaerobically (or semi-anaerobically in still culture) in the MIC assay medium described above containing 20-500 mM glycerol or glyceraldehyde in place of glucose as the major carbon and energy source. […] Twenty other substances, including hexoses, hexitols, pentoses, pentitols, disaccharides and a variety of phosphorylated and non-phosphorylated C3-substances, were tested for their ability to support reuterin production. […] The medium, containing a substrate at 20 mM (C6 and C5 substrates) or 40 mM (C3 substrates) concentrations, was inoculated with 5 x 10^6 colony-forming units (CFU) per ml E. coli with and without L. reuteri. Only glycerol and glyceraldehyde yielded reuterin. Also, réuterin production from glycerol is inhibited when glucose or another growth substrate is included in the production medium. The results shown in Table 2 indicate the percent inhibition in viable count of a 6.7 x 10^7 CFU per ml E. coli inoculum by supernatant fractions of L. reuteri grown on various indicated substrates at 40 mM concentrations.

E. coli [2] = assay: Co-culture of E. coli with and without L. reuteri 1063 on various substrates (Table 1); set-up: % Inhibition: concentration or dose not given beside the values; details: for E. coli (CFU/ml) after 6 hours: substrate 20 mM (C6, C5) or 40 mM (C3), inoculum 5 x 10^6 CFU per ml E. coli; for % Inhibition: E. coli with versus without L. reuteri 1063 on the substrate, 6 hours
Description: as §1

[3] = Antimicrobial activity of pure commercial preparations; details: concentrations as high as 0.125M
From the text: Reuterin Is a Product of Glycerol Fermentation. Reuterin is a new product associated with the same type of heterolactic fermentation of glycerol that occurs in other Lactobacillus species. Reuterin can be isolated and identified as a product of glycerol fermentation by L. reuteri using HPLC.

SMILES	% Inhibition (E. coli [1])	Growth of E. coli presence of centrifuged culture medium CFU/ml after 6 hours (E. coli [1])	E. coli (CFU/ml) after 6 hours (E. coli [2]; Addition of L. reuteri 1063: +)	E. coli (CFU/ml) after 6 hours (E. coli [2]; Addition of L. reuteri 1063: -)	% Inhibition (E. coli [2])	antimicrobial activity [3]
C=C(OP(=O)(O)O)C(=O)O [Phosphoenolpyruvate]	0%	3.7x10^9 CFU/ml				
OC[C@@H](O)[C@@H](O)[C@@H](O)CO [Ribitol]			4.9x10^6 CFU/ml	5.7x10^6 CFU/ml	0%	
OC[C@@H](O)[C@@H](O)[C@H](O)[C@@H](O)CO [Sorbitol]			1.9x10^8 CFU/ml	2.1x10^8 CFU/ml	0%	
CC(=O)C(=O)O [Pyruvate]	0%	4.1x10^9 CFU/ml				
OC[C@@H](O)C(O)[C@H](O)CO [Arabitol]			2.9x10^6 CFU/ml	2.7x10^6 CFU/ml	0%	
O=C[C@H](O)[C@@H](O)[C@H](O)CO [Xylose]			6.9x10^7 CFU/ml	6.7x10^7 CFU/ml	0%	
OCCCO [1,3-propanediol]						essentially devoid of antimicrobial activity
O=C(O)[C@H](O)[C@@H](O)[C@H](O)[C@H](O)CO [Gluconate]			3.2x10^8 CFU/ml	3.5x10^8 CFU/ml	0%	
